Measurements from publication PMC12440775 (Frontiers in Pharmacology, 2025).
Entries after “also recorded” stand apart in the source; their conditions may differ. Marks after values point to notes of the source that are not given here.

Tests used:
[1] = Safety and tolerability, single ascending dose (Part 1); format: in vivo, human; conditions: for Abdominal pain / Diarrhea / Dizziness / Flatulence / Gastrointestinal disorders / Headache / Hepatobiliary disorders / Hyperbilirubinemia / Jaundice / Nausea / Nervous system disorders / Retching / Subjects with any AE / Vomiting: 6 subjects
Protocol: (§1) Six volunteers received the active drug at each dose level dissolved in a polyethylene glycol (PEG)/tromethamine (TRIS)/meglumine solution, and two received a placebo. One dose level was tested within each group. Subject groups were dosed and evaluated sequentially, beginning with the lowest-dose group and proceeding stepwise to the highest-dose group. The next higher dose was administered only if no safety concerns arose during treatment of the preceding group.
Safety was assessed throughout the study by monitoring changes in clinical laboratory parameters (e.g., serum biochemistry, hematology, and urinalysis), 12-lead electrocardiograms, or vital signs (blood pressure, pulse rate, and temperature measurements); monitoring for occurrence of AEs); and carrying out physical examinations.

[2] = Urinary excretion of unchanged FDV after single ascending dose (Part 1); format: in vivo, human; conditions: gMean (gCV%)
Protocol: as §1
A blank urine sample was collected prior to drug administration, and two 10-mL aliquots were retained to be checked for analytical interference. All urine voided during the sampling intervals 0–4, 4–12, 12–24, and 24–48 h after administration was collected in containers (Figure 1). Subjects were asked to completely void their bladder at the end of each collection interval. The urine volume for each collection interval was documented. Two aliquots of approximately 5 mL were taken and frozen at −20 °C or below and stored for bioanalytical measurement. Until shipped on dry ice to the analytical laboratory, the urine samples were stored at −20 °C or below at the clinical site and stored in the analytical laboratory at −20 °C or below until analysis.
Standard formulas for non-compartmental pharmacokinetic analysis provided by WinNonlin were used in determination of the maximum concentration (Cmax), time to maximum concentration (tmax), oral clearance (CL/F), mean residence time (MRTpo), and apparent volume distribution in terminal phase (Vz/F). The area under the plasma concentration–time curve (AUC) was calculated using a linear up/log down trapezoidal algorithm. The predicted concentration at the last time-point with quantifiable concentration was used for extrapolation of AUC. The fraction excreted as unchanged drug in urine (fe) was calculated as the percentage of the amount of drug excreted in urine as unchanged drug (Aet1–t2) compared to the administered dose ([Huang et al., 2008b]).

For C=C[C@@H]1C[C@]1(NC(=O)[C@@H]1C[C@@H](Oc2cc(-c3csc(NC(=O)C(C)C)n3)nc3c(Br)c(OC)ccc23)CN1C(=O)[C@@H](NC(=O)OC1CCCC1)C(C)(C)C)C(=O)O [FDV, Faldaprevir], the “Subjects with increases in total bilirubin” value (shortened to “Subjects with increases”) ([1]; 120 mg, Part 1) was “two subjects”, the “Subjects with increases” value ([1]; 240 mg, Part 1) was “three subjects” and the “Subjects with increases” value ([1]; 480 mg, Part 1) was “five subjects”. The “Subjects with increases” value ([1]; 800 mg, Part 1) was “six subjects”, the “Subjects with increases” value ([1]; 1,200 mg, Part 1) was “six subjects” and the “Subjects with marked hyperbilirubinemia / indirect (unconjugated) bilirubin >3.0 mg/dL” value ([1]; 480-mg group, Part 1) was “two subjects”. The “Subjects with marked hyperbilirubinemia / indirect (unconjugated) bilirubin >3.0 mg/dL” value ([1]; 1,200-mg group, Part 1) was “five subjects”, the Abdominal pain ([1]; FDV 4 mg) was 0 n (%) and the Diarrhea ([1]; FDV 4 mg) was 0 n (%). The Dizziness ([1]; FDV 4 mg) was 0 n (%), the Flatulence ([1]; FDV 4 mg) was 0 n (%) and the Gastrointestinal disorders ([1]; FDV 4 mg) was 1 (16.7) n (%). The Headache ([1]; FDV 4 mg) was 1 (16.7) n (%), the Hepatobiliary disorders ([1]; FDV 4 mg) was 0 n (%) and the Hyperbilirubinemia ([1]; FDV 4 mg) was 0 n (%). For the same molecule, the Jaundice ([1]; FDV 4 mg) was 0 n (%), the Nausea ([1]; FDV 4 mg) was 1 (16.7) n (%) and the Nervous system disorders ([1]; FDV 4 mg) was 1 (16.7) n (%). For the same molecule, the Retching ([1]; FDV 4 mg) was 0 n (%), the “Subjects with any AE” value ([1]; FDV 4 mg) was 1 (16.7) n (%) and the Vomiting ([1]; FDV 4 mg) was 0 n (%). For the same molecule, the Abdominal pain ([1]; FDV 16 mg) was 0 n (%), the Diarrhea ([1]; FDV 16 mg) was 0 n (%) and the Dizziness ([1]; FDV 16 mg) was 0 n (%). For the same molecule, the Flatulence ([1]; FDV 16 mg) was 0 n (%), the Gastrointestinal disorders ([1]; FDV 16 mg) was 0 n (%) and the Headache ([1]; FDV 16 mg) was 0 n (%). The Hepatobiliary disorders ([1]; FDV 16 mg) was 0 n (%), the Hyperbilirubinemia ([1]; FDV 16 mg) was 0 n (%) and the Jaundice ([1]; FDV 16 mg) was 0 n (%). For the same molecule, the Nausea ([1]; FDV 16 mg) was 0 n (%), the Nervous system disorders ([1]; FDV 16 mg) was 0 n (%) and the Retching ([1]; FDV 16 mg) was 0 n (%). The “Subjects with any AE” value ([1]; FDV 16 mg) was 0 n (%), the Vomiting ([1]; FDV 16 mg) was 0 n (%) and the Abdominal pain ([1]; FDV 48 mg) was 0 n (%). For the same molecule, the Diarrhea ([1]; FDV 48 mg) was 0 n (%), the Dizziness ([1]; FDV 48 mg) was 1 (16.7) n (%) and the Flatulence ([1]; FDV 48 mg) was 0 n (%). The Gastrointestinal disorders ([1]; FDV 48 mg) was 0 n (%), the Headache ([1]; FDV 48 mg) was 1 (16.7) n (%) and the Hepatobiliary disorders ([1]; FDV 48 mg) was 0 n (%). For the same molecule, the Hyperbilirubinemia ([1]; FDV 48 mg) was 0 n (%), the Jaundice ([1]; FDV 48 mg) was 0 n (%) and the Nausea ([1]; FDV 48 mg) was 0 n (%). For the same molecule, the Nervous system disorders ([1]; FDV 48 mg) was 1 (16.7) n (%), the Retching ([1]; FDV 48 mg) was 0 n (%) and the “Subjects with any AE” value ([1]; FDV 48 mg) was 3 (50.0) n (%). For the same molecule, the Vomiting ([1]; FDV 48 mg) was 0 n (%), the Abdominal pain ([1]; FDV 120 mg) was 0 n (%) and the Diarrhea ([1]; FDV 120 mg) was 1 (16.7) n (%). The Dizziness ([1]; FDV 120 mg) was 0 n (%), the Flatulence ([1]; FDV 120 mg) was 0 n (%) and the Gastrointestinal disorders ([1]; FDV 120 mg) was 1 (16.7) n (%). For the same molecule, the Headache ([1]; FDV 120 mg) was 0 n (%), the Hepatobiliary disorders ([1]; FDV 120 mg) was 0 n (%) and the Hyperbilirubinemia ([1]; FDV 120 mg) was 0 n (%). For the same molecule, the Jaundice ([1]; FDV 120 mg) was 0 n (%), the Nausea ([1]; FDV 120 mg) was 0 n (%) and the Nervous system disorders ([1]; FDV 120 mg) was 0 n (%). The Retching ([1]; FDV 120 mg) was 0 n (%), the “Subjects with any AE” value ([1]; FDV 120 mg) was 1 (16.7) n (%) and the Vomiting ([1]; FDV 120 mg) was 0 n (%). The Abdominal pain ([1]; FDV 240 mg) was 1 (16.7) n (%), the Diarrhea ([1]; FDV 240 mg) was 0 n (%) and the Dizziness ([1]; FDV 240 mg) was 0 n (%). For the same molecule, the Flatulence ([1]; FDV 240 mg) was 0 n (%), the Gastrointestinal disorders ([1]; FDV 240 mg) was 2 (33.3) n (%) and the Headache ([1]; FDV 240 mg) was 2 (33.3) n (%). The Hepatobiliary disorders ([1]; FDV 240 mg) was 0 n (%), the Hyperbilirubinemia ([1]; FDV 240 mg) was 0 n (%) and the Jaundice ([1]; FDV 240 mg) was 0 n (%). For the same molecule, the Nausea ([1]; FDV 240 mg) was 1 (16.7) n (%), the Nervous system disorders ([1]; FDV 240 mg) was 2 (33.3) n (%) and the Retching ([1]; FDV 240 mg) was 0 n (%). For the same molecule, the “Subjects with any AE” value ([1]; FDV 240 mg) was 5 (83.3) n (%), the Vomiting ([1]; FDV 240 mg) was 1 (16.7) n (%) and the Abdominal pain ([1]; FDV 480 mg) was 0 n (%). For the same molecule, the Diarrhea ([1]; FDV 480 mg) was 3 (50.0) n (%), the Dizziness ([1]; FDV 480 mg) was 1 (16.7) n (%) and the Flatulence ([1]; FDV 480 mg) was 1 (16.7) n (%). For the same molecule, the Gastrointestinal disorders ([1]; FDV 480 mg) was 4 (66.7) n (%), the Headache ([1]; FDV 480 mg) was 3 (50.0) n (%) and the Hepatobiliary disorders ([1]; FDV 480 mg) was 2 (33.3) n (%). For the same molecule, the Hyperbilirubinemia ([1]; FDV 480 mg) was 2 (33.3) n (%), the Jaundice ([1]; FDV 480 mg) was 0 n (%) and the Nausea ([1]; FDV 480 mg) was 2 (33.3) n (%). For the same molecule, the Nervous system disorders ([1]; FDV 480 mg) was 4 (66.7) n (%), the Retching ([1]; FDV 480 mg) was 2 (33.3) n (%) and the “Subjects with any AE” value ([1]; FDV 480 mg) was 6 (100) n (%). For the same molecule, the Vomiting ([1]; FDV 480 mg) was 1 (16.7) n (%), the Abdominal pain ([1]; FDV 800 mg) was 1 (16.7) n (%) and the Diarrhea ([1]; FDV 800 mg) was 4 (66.7) n (%). For the same molecule, the Dizziness ([1]; FDV 800 mg) was 1 (16.7) n (%), the Flatulence ([1]; FDV 800 mg) was 0 n (%) and the Gastrointestinal disorders ([1]; FDV 800 mg) was 4 (66.7) n (%). For the same molecule, the Headache ([1]; FDV 800 mg) was 1 (16.7) n (%), the Hepatobiliary disorders ([1]; FDV 800 mg) was 0 n (%) and the Hyperbilirubinemia ([1]; FDV 800 mg) was 0 n (%). For the same molecule, the Jaundice ([1]; FDV 800 mg) was 0 n (%), the Nausea ([1]; FDV 800 mg) was 1 (16.7) n (%) and the Nervous system disorders ([1]; FDV 800 mg) was 1 (16.7) n (%). For the same molecule, the Retching ([1]; FDV 800 mg) was 0 n (%), the “Subjects with any AE” value ([1]; FDV 800 mg) was 4 (66.7) n (%) and the Vomiting ([1]; FDV 800 mg) was 0 n (%). The Abdominal pain ([1]; FDV 1,200 mg) was 0 n (%), the Diarrhea ([1]; FDV 1,200 mg) was 3 (50.0) n (%) and the Dizziness ([1]; FDV 1,200 mg) was 1 (16.7) n (%). For the same molecule, the Flatulence ([1]; FDV 1,200 mg) was 1 (16.7) n (%), the Gastrointestinal disorders ([1]; FDV 1,200 mg) was 4 (66.7) n (%) and the Headache ([1]; FDV 1,200 mg) was 0 n (%). The Hepatobiliary disorders ([1]; FDV 1,200 mg) was 5 (83.3) n (%), the Hyperbilirubinemia ([1]; FDV 1,200 mg) was 5 (83.3) n (%) and the Nausea ([1]; FDV 1,200 mg) was 1 (16.7) n (%). The Nervous system disorders ([1]; FDV 1,200 mg) was 1 (16.7) n (%), the Retching ([1]; FDV 1,200 mg) was 1 (16.7) n (%) and the “Subjects with any AE” value ([1]; FDV 1,200 mg) was 6 (100) n (%). The Vomiting ([1]; FDV 1,200 mg) was 0 n (%), the Jaundice ([1]; FDV 1,200 mg, mild transient jaundice of the skin and sclera) was 1 (16.7) ^b n (%) and the Severe vomiting ([1]; FDV 240-mg dose group) was “one subject”. For the same molecule, the “Subjects with an AE after treatment with FDV” value ([1]; Part 1, all FDV dose groups) was 26 subjects out of 48, the “Subjects with AEs with a possible relationship to the study drug according to the investigator” value ([1]; Part 1, receiving FDV) was 19 subjects and the “Subjects with marked hyperbilirubinemia (>3.0 mg/dL)” value ([1]; all dose groups, Part 1) was “seven subjects”. For the same molecule, the “Serious AEs” value ([1]; during the study (both parts)) was “no serious AEs were reported; also recorded: No serious AEs occurred”, the Tolerability ([1]; oral solution, single doses 4–1,200 mg) was “generally well tolerated” and the “Changes in alanine transaminase, hemoglobin, or neutrophil count” value ([1]; subjects with hyperbilirubinemia or elevated total bilirubin) was “no clinically relevant changes”. For the same molecule, the “Changes in vital signs, ECGs, or medical examinations” value ([1]; whole study) was “No clinically relevant changes”, the “Subjects with slight elevations of direct bilirubin” value ([1]; whole study, groups not specified) was 14 subjects and the “Fe0–48h (fraction excreted in urine)” value ([2]; FDV 48 mg single oral dose) was 0.01 (165) %. For the same molecule, the “Fe0–48h (fraction excreted in urine)” value ([2]; FDV 120 mg single oral dose) was 0.02 (93) %, the “Fe0–48h (fraction excreted in urine)” value ([2]; FDV 240 mg single oral dose) was 0.04 (68) % and the “Fe0–48h (fraction excreted in urine)” value ([2]; FDV 480 mg single oral dose) was 0.04 (37) %. The “Fe0–48h (fraction excreted in urine)” value ([2]; FDV 800 mg single oral dose) was 0.03 (110) % and the “Fe0–48h (fraction excreted in urine)” value ([2]; FDV 1,200 mg single oral dose) was 0.03 (54) %.
